The results in this text go back to article PMC9667932, “Isobactins: O-acyl isopeptide prodrugs of teixobactin and teixobactin derivatives” (Chemical Science, 2022).

≈ marks a conversion by molar mass, not a printed value. Read-outs that look alike come from different tables or passages of the source. Marks after values point to notes of the source that are not given here.

Data set [1] concerns four Gram-positive bacteria. The settings on record: Table 2. The text has this: (§1) We used methicillin-susceptible and methicillin-resistant S. aureus as representative pathogens and B. subtilis and S. epidermidis as additional Gram-positive bacteria, and we used E. coli as a Gram-negative control.
In data set [2] the test system is human red blood cells. Nature of the data set: Hemolytic assay. The format is cell-based. From the text: We evaluated the hemolytic activity of the O-acyl isopeptide prodrugs and the corresponding teixobactin analogues with human red blood cells (Fig. S14–S21 ^†). We used Triton X-100 and melittin as positive controls and vancomycin and water (vehicle) as negative controls in the hemolysis assays.[9,25,26] […] In contrast, 0.002% polysorbate 80 had no effect on the hemolytic activity of Lys10–teixobactin and Leu10–teixobactin and little effect on the corresponding O-acyl isopeptide prodrug analogues. When we performed hemolysis assays with teixobactin, we observed no hemolysis up to 100 μg mL^−1 without polysorbate 80 and modest hemolysis (4%) at 100 μg mL^−1 with 0.002% polysorbate 80. We observed no hemolysis with vancomycin at concentrations up to 100 μg mL^−1, and we observed 26–30% hemolysis with 1.25 μg mL^−1 melittin with and without 0.002% polysorbate 80.

Data set [3] concerns Bacillus subtilis ATCC 6051. Nature of the data set: microbe, parasite or virus in culture.
From the text: as §1

Data set [4] relates to Escherichia coli ATCC 10798. The experiment in a line: microbe, parasite or virus in culture.
From the text: as §1

The test system of data set [5] is Staphylococcus aureus (MRSA) ATCC 700698. The experiment in a line: microbe, parasite or virus in culture.
From the text: as §1

The subject of data set [6] is Staphylococcus aureus (MSSA) ATCC 29213. Nature of the data set: microbe, parasite or virus in culture. The settings on record: ATCC29213|MSSA.
From the text: as §1

Data set [7] deals with Staphylococcus epidermidis ATCC 14990. The experiment in a line: microbe, parasite or virus in culture.
From the text: as §1

Setting [8] is: in the presence of 0.002% polysorbate 80.

Take `CN[C@H](CC(C)C)C(=O)N[C@H]1C(=O)N[C@@H](CC(N)=O)C(=O)N[C@H]2C(=O)N[C@H]3C(=O)N[C@H](C(=O)N[C@H](C(=O)O)c4cc(O)cc(O)c4-c4cc3ccc4O)[C@H](O)c3ccc(c(Cl)c3)Oc3cc2cc(c3O[C@@H]2O[C@H](CO)[C@@H](O)[C@H](O)[C@H]2O[C@H]2C[C@](C)(N)[C@H](O)[C@H](C)O2)Oc2ccc(cc2Cl)[C@H]1O` [Vancomycin, vancomycin, reference compound]: the “MICs (range over the Gram-positive bacteria)” value in data set [1] (setting [8]) lay within 0.125 to 2 µg/mL. In addition, the “Hemolysis at concentrations up to 100 μg mL^−1” value in data set [2] (negative control) is “no hemolysis”. For the same compound, the MIC in data set [3] (ATCC6051, read-out: MIC Bacillus subtilis ATCC 6051, culture media containing 0% polysorbate 80) was 0.125 to 0.25 µg/mL (≈ 0.0863 to 0.173 µM); in data set [3] (ATCC6051, read-out: MIC Bacillus subtilis ATCC 6051, culture media containing 0.002% polysorbate 80), 0.5 µg/mL (≈ 0.345 µM); in data set [4] (ATCC10798, read-out: MIC Escherichia coli ATCC 10798, culture media containing 0% polysorbate 80), greater than 32 µg/mL; in data set [4] (ATCC10798, read-out: MIC Escherichia coli ATCC 10798, culture media containing 0.002% polysorbate 80), greater than 8 µg/mL; in data set [5] (Staphylococcus aureus, ATCC700698|MRSA, read-out: MIC Staphylococcus aureus (MRSA) ATCC 700698), 2 µg/mL (≈ 1.38 µM); in data set [6] (read-out: MIC Staphylococcus aureus (MSSA) ATCC 29213, culture media containing 0% polysorbate 80), 0.5 µg/mL (≈ 0.345 µM). For the same compound, the MIC in data set [6] (read-out: MIC Staphylococcus aureus (MSSA) ATCC 29213, culture media containing 0.002% polysorbate 80) was determined as 1 µg/mL (≈ 0.69 µM); in data set [7] (ATCC14990, read-out: MIC Staphylococcus epidermidis ATCC 14990, culture media containing 0% polysorbate 80) it was 1 µg/mL (≈ 0.69 µM); in data set [7] (ATCC14990, read-out: MIC Staphylococcus epidermidis ATCC 14990, culture media containing 0.002% polysorbate 80), 2 µg/mL (≈ 1.38 µM). Also, the “MIC Staphylococcus aureus (MRSA) ATCC 700698” value in data set [5] (culture media containing 0.002% polysorbate 80) is 2 ^b μg mL^−1.

On to `CC[C@H](C)[C@H](NC(=O)[C@@H](Cc1ccccc1)NC)C(=O)N[C@@H](CO)C(=O)N[C@H](CCC(N)=O)C(=O)N[C@@H](C(=O)N[C@H](C(=O)N[C@@H](CO)C(=O)N[C@H]1C(=O)N[C@@H](C)C(=O)N[C@@H](CCCCN)C(=O)N[C@@H]([C@@H](C)CC)C(=O)O[C@H]1C)[C@@H](C)CC)[C@@H](C)CC` [Lys10–teixobactin], for which the “MICs (range over the Gram-positive bacteria)” value fell in the range of 0.25 to 2 µg/mL in data set [1] (setting [8]) and 2 to 4 µg/mL in data set [1] (without polysorbate 80). Moreover, the “Effect of 0.002% polysorbate 80 on the hemolytic activity” value in data set [2] was “no effect”.

As for melittin [reference compound], in data set [2] (with and without 0.002% polysorbate 80, positive control), the “Hemolysis at 1.25 μg mL^−1” value is 26–30%.

In the case of `CC[C@H](C)[C@H](NC(=O)[C@@H](Cc1ccccc1)NC)C(=O)N[C@@H](CO)C(=O)N[C@H](CCC(N)=O)C(=O)N[C@@H](C(=O)N[C@H](C(=O)N[C@@H](CO)C(=O)N[C@H]1C(=O)N[C@@H](C)C(=O)N[C@@H](CC(C)C)C(=O)N[C@@H]([C@@H](C)CC)C(=O)O[C@H]1C)[C@@H](C)CC)[C@@H](C)CC` [Leu10–teixobactin], the “Effect of 0.002% polysorbate 80 on the hemolytic activity” value in data set [2] is “no effect”. Besides, the “MIC Staphylococcus aureus (MRSA) ATCC 700698” value in data set [5] (ATCC 700698) was 2 ^a μg mL^−1.
